According to PMC11050823, “The Cyclic Imine Core Common to the Marine Macrocyclic Toxins Is Sufficient to Dictate Nicotinic Acetylcholine Receptor Antagonism” (Marine Drugs, 2024):
pIC50: −log10 of the molar value. “Also recorded” adds a separate entry of the source. Marks after values point to notes of the source that are not given here.

Legend:
[1] = biological target: T1, human neuronal α4β2 nAChR (Homo sapiens, UniProt P17787+P43681); assay: Automated TEVC recording of ACh-evoked currents in Xenopus oocytes expressing human α4β2 nAChR; type: cell-based; settings: for recovery of the ACh-evoked current after washout of bound spiroimine: 10 µM spiroimine, wash; for Hill Slope: concentration-inhibition curve, ACh 150 µM; for Hill Slope / pIC50: 95% confidence interval in parentheses; for pIC50: inhibition of ACh-evoked current, ACh 150 µM (EC50), −60 mV
T1 construct: expressed in transfected cells; host or cells: Xenopus laevis oocytes; cDNAs in pRc/CMV vector
Text: (§1) Functional analysis of the (±)-4 racemate and (+)-4 R and (−)-4 S enantiomers used either manual or automated two-electrode voltage-clamp (TEVC) recordings on Xenopus laevis oocytes at −60 mV holding membrane potential. The oocytes were either micro-transplanted with Torpedo α1_2βγδ-enriched electrocyte membranes or transfected with human α7 or α4β2-encoding cDNAs. When applied alone (see Experimental Procedures), none of the three spiroimines induced nAChR channel opening, thereby discarding any agonistic activity toward these nAChR subtypes. Instead, when applied together with ACh at its EC50 concentration for each nAChR subtype, all three spiroimines clearly behaved as nicotinic antagonists, whose potency depended on the receptor subtype examined (Figure 2; Table 1).
(§2) The sources for live animals and biological materials, the procedures for nAChR microtransplantation and expression in oocytes, and the procedures for manual (α1_2βγδ nAChR) and automated (α7 and α4β2 nAChRs) TEVC recording are detailed in Appendix C. […] Then, the oocyte was perfused for 45 s with the tested spiroimine at a given concentration, immediately followed by the co-application of ACh and the spiroimine at the same concentrations and times as indicated above. The oocyte was washed with Ringer’s solution, and then recovery of the ACh-evoked current was recorded.
(§3) The concentration–inhibition curves were analyzed as previously detailed using the equation I = Imax [L]^nH/(EC50^nH + [L]^nH) (Equation (1)), where I is the measured agonist-evoked current, [L] is the agonist concentration, EC50 is the agonist concentration that evoked half the maximal current (I^max), and nH is the Hill coefficient. For antagonist inhibition, current (I) values were normalized to the I^max value recorded from the same oocyte to yield the fractional (%) response data. IC50 values were established from the concentration–response curves by fitting to the equation F = 1/[1 + ([X]/IC50)^nH] (Equation (2)), where F is the fractional response obtained in the presence of the inhibitor at concentration [X], and IC50 is the inhibitor concentration reducing the ACh-evoked amplitude by half. Data analysis was performed without constraints as Log[spiroimine] versus response (three parameters), with a Hill slope ~1. Statistical significance of differences between the control and test values was assessed using either the two-tailed Student’s “t” test or the Kolmogorov–Smirnov two-sample test and p < 0.05.
(§4) Torpedo membranes containing α1_2βγδ nAChR were microtransplanted into the oocyte cytoplasm by microinjecting a membrane suspension (50 nL at 2.5 µg/µL, i.e., 125 ng total protein, in 5 mM glycine) with an electronic micro-injector (Nanoliter2000 Micro4 Controller, World Precision Instruments Inc., Hertfordshire, UK) mounted on a microscope. Human α7 and α4β2 nAChRs were expressed through microinjection, into the oocyte nucleus, of α7 mRNA and of a 1:1 (w/w) mixture of α4 and β2 cDNAs (a ratio favoring expression of the α4_3β2_2 population over the α4_2β2_3 population) (50 nL at 1 µg/µL) in a pRc/CMV expression vector (Invitrogen). Oocytes were maintained at 18 °C and TEVC recordings were performed 1–4 days later in a room with controlled temperature (20 °C).
(§5) Automated TEVC on α7 and α4β2 nAChR oocytes was performed using a HiClamp system (Multi Channel Systems, GmbH., Reutlingen, Germany). Oocytes free of follicular cells were transferred from the 96-wells of the oocyte microplate to a recording basket carrying the reference bath electrode. Oocytes were automatically impaled and clamped at a holding potential of −60 mV using borosilicate glass microelectrodes of 0.5–5 MΩ tip resistances, filled with a 1:1 (v/v) mixture of KCl 1 M and KAc 1 M. The clamped oocytes were exposed twice or thrice to ACh by incubation into a well containing ACh (at the EC50 for the assayed nAChR subtype) to obtain a control IACh peak amplitude. […]

human neuronal α7 nAChR = biological target: T2, human neuronal α7 nAChR (Homo sapiens, UniProt P36544); assay: Automated TEVC recording of ACh-evoked currents in Xenopus oocytes expressing human α7 nAChR; type: cell-based; settings: for Hill Slope: concentration-inhibition curve, ACh 100 µM; for Hill Slope / pIC50: 95% confidence interval in parentheses; for pIC50: inhibition of ACh-evoked current, ACh 100 µM (EC50), −60 mV
T2 construct: expressed in transfected cells; host or cells: Xenopus laevis oocytes
Text: as §1, §2, §3, §4, §5

[2] = biological target: Torpedo muscle-type α1_2βγδ nAChR (Torpedo marmorata, UniProt P02711+Q6S3H8+Q6S3H9); assay: Manual TEVC recording of ACh-evoked currents in Xenopus oocytes micro-transplanted with Torpedo electrocyte membranes; type: cell-based; settings: for Hill Slope: concentration-inhibition curve, ACh 25 µM
Text: as §1, §2, §3, §4
(§6) Manual TEVC on α1_2βγδ nAChR oocytes was carried out using an OC-725B amplifier (Warner Instrument Corp., Hamden, CT, USA). Voltage and current borosilicate glass microelectrodes were filled with KCl 3 M and had 0.5–1.5 MΩ tip resistances. For data acquisition and recording, a pCLAMP-9/Digidata-1322A system (Molecular Devices, San Jose, CA, USA) was used. The oocyte recording chamber of 300 μL was superfused at a high rate (8–12 mL.min^−1) with a modified oocyte Ringer’s solution made of HEPES 5 mM pH 7.4, NaCl 100 mM, KCl 2.8 mM, and BaCl2 0.3 mM, where BaCl2 substitution to the original CaCl2 prevents secondary activation of a Ca^2+-dependent Cl^− current. […]

[3] = test system: Torpedo muscle-type α1_2βγδ nAChR; assay: as above; type: cell-based, Torpedo marmorata; settings: from IC50 values
Text: as §1, §2, §3, §4, §6

T1 sequence (P43681 29-627 limits assumed): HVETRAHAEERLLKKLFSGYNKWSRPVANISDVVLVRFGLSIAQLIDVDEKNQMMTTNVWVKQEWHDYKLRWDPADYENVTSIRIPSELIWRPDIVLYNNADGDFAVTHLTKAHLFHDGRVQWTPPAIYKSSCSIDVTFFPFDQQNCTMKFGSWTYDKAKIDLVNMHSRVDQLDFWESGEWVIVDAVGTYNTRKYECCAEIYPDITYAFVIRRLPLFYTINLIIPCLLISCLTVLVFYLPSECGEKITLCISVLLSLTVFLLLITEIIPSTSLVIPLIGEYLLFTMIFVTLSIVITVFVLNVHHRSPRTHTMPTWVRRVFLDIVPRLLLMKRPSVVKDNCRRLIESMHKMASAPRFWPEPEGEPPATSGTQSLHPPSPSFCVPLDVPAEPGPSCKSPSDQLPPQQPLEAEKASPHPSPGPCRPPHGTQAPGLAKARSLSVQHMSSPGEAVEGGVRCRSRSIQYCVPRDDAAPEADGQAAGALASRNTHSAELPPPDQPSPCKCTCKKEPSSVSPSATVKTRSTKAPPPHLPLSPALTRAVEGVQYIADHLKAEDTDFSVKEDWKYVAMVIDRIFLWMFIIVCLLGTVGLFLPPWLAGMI
T1 sequence (P17787 26-502): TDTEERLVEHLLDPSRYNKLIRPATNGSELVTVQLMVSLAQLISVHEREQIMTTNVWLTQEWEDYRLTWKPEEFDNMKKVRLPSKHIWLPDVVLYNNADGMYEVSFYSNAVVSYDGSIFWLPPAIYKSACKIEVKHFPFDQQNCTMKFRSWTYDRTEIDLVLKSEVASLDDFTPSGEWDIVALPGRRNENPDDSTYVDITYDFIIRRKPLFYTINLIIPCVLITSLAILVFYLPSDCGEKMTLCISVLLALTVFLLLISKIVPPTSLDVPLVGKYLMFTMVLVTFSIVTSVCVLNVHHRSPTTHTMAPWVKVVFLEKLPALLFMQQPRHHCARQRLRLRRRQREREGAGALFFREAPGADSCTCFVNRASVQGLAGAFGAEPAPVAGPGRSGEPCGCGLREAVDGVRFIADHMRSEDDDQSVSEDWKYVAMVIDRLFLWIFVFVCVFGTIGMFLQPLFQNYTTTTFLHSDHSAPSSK
Torpedo muscle-type α1_2βγδ nAChR (Torpedo marmorata, UniProt P02711+Q6S3H8+Q6S3H9), sequence (P02711 25-461): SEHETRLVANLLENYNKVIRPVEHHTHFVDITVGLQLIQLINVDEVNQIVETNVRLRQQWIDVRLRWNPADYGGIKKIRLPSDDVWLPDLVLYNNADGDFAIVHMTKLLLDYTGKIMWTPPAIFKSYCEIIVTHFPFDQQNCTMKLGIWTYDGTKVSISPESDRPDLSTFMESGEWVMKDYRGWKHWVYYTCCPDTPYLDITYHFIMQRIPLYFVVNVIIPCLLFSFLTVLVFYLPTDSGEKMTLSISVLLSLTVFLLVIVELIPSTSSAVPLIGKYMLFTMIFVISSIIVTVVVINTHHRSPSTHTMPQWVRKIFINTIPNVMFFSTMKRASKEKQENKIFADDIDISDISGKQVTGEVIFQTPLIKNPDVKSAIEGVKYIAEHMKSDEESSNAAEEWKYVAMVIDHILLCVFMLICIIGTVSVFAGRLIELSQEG
Torpedo muscle-type α1_2βγδ nAChR (Torpedo marmorata, UniProt P02711+Q6S3H8+Q6S3H9), sequence (Q6S3H9 18-505): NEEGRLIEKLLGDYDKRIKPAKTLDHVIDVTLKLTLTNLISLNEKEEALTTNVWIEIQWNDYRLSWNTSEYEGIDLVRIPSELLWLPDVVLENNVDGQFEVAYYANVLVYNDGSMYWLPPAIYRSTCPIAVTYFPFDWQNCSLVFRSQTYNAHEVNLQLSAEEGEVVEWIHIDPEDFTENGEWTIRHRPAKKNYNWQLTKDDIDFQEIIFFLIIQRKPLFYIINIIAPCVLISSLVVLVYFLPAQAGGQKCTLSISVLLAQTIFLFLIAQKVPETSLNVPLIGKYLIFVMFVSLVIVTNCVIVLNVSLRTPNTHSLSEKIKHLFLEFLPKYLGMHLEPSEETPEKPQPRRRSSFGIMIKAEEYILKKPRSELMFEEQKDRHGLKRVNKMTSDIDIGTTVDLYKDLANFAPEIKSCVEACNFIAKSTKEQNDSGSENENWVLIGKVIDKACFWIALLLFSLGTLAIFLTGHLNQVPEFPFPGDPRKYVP
Torpedo muscle-type α1_2βγδ nAChR (Torpedo marmorata, UniProt P02711+Q6S3H8+Q6S3H9), sequence (Q6S3H8 22-522): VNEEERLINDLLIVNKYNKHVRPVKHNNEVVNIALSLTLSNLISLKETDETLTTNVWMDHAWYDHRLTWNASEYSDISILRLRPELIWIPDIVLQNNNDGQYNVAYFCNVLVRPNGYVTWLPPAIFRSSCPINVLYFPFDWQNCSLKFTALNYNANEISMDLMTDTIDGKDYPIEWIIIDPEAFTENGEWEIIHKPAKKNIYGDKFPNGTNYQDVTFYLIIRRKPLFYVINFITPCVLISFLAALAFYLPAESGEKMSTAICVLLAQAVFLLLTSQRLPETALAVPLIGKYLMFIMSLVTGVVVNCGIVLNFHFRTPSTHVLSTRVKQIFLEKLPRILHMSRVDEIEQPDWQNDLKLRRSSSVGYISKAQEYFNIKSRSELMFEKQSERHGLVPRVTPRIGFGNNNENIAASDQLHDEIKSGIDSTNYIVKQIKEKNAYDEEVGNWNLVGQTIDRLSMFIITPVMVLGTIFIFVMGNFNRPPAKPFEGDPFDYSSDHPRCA
Torpedo muscle-type α1_2βγδ nAChR (Torpedo marmorata, UniProt P02711+Q6S3H8+Q6S3H9), sequence (Q6S3I0 25-493 partner): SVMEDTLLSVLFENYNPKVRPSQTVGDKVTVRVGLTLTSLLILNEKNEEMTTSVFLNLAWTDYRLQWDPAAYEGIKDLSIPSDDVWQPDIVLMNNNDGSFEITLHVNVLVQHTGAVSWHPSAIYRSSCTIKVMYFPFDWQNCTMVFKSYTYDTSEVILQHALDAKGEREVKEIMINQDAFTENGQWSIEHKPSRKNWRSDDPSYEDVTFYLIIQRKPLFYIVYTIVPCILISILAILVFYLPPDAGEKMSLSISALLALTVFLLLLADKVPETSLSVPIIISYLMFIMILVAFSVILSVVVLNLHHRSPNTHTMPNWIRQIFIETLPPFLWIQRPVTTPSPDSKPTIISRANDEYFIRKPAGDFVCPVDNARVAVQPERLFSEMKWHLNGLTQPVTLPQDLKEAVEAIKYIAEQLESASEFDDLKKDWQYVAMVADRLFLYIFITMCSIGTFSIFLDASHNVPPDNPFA
T2 sequence (P36544 23-502): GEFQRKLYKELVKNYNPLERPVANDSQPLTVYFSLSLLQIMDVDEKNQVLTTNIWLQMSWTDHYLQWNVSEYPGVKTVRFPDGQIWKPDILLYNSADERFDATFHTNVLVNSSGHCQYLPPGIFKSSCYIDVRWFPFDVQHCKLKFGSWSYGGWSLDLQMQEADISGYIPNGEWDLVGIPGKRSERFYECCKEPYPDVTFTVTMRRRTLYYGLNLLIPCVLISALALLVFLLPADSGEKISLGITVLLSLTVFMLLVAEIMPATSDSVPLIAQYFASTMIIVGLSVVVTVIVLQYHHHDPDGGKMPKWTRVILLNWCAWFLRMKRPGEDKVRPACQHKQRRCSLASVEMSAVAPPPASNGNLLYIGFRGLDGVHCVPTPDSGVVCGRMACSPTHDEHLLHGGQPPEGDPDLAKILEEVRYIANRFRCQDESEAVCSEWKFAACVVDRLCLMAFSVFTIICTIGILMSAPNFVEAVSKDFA

Structure (SMILES)	recovery of the ACh-evoked current after washout of bound spiroimine [1]	Hill Slope [1]	pIC50 [1]	Hill Slope (human neuronal α7 nAChR)	pIC50 (human neuronal α7 nAChR)	recovery of the ACh-evoked current after washout of bound spiroimine ([2]; 10 µM spiroimine, washout with ACh, desensitized state)	Hill Slope [2]	agonistic activity (nAChR channel opening) ([1]; spiroimine applied alone)	higher affinity compared with the (−)-4 S enantiomer ([1]; α4β2 nAChR, from Table 1)	higher affinity compared with the (−)-4 S enantiomer (human neuronal α7 nAChR; α7 nAChR, from Table 1)	selectivity for the α1_2βγδ nAChR compared with the α4β2 subtype [3]	selectivity for the α1_2βγδ nAChR compared with the α7 subtype [3]	recovery of the ACh-evoked current after washout of bound spiroimine (human neuronal α7 nAChR; 10 µM spiroimine, wash with Ringer's solution)
CC1=NCCCC12CCCCC21OCCO1 (racemic) [Racemic (±)-4, 7-methyl-1,4-dioxa-8-azadispiro[4.0.5.4]pentadec-7-ene]	fast reversibility; also recorded: fast and complete	1.08 (0.86–1.29) ^b	5.16	0.61 (0.47–0.75) ^b	5.68	full recovery of the nicotinic current	~1 ^b						
CC1=NCCC[C@]12CCCCC21OCCO1 [Spiroimine (+)-4 R, 7-methyl-1,4-dioxa-8-azadispiro[4.0.5.4]pentadec-7-ene]	fast and complete	0.83 (0.15–1.52) ^b	5.03	0.78 (0.54–1.01) ^b	5.31		~1 ^b	elicited no inward current per se	ca. 5 fold	ca. 5 fold	25 fold	13 fold	
CC1=NCCC[C@@]12CCCCC21OCCO1 [Spiroimine (−)-4 S, 7-methyl-1,4-dioxa-8-azadispiro[4.0.5.4]pentadec-7-ene]		0.53 (0.32–0.74) ^b	5.85	0.58 (0.44–0.72) ^b	5.84		~1 ^b						fast and complete
